Source: US4316904A, “Indolopyrone tetrazoles and carboxamidotetrazoles having antiallergic activity” (priority 1979, dated 1982)

Test system: Reaginic Passive Cutaneous Anaphylaxis (PCA)
Assay: Rat Reaginic Passive Cutaneous Anaphylaxis (PCA)
Type: in vivo
Conditions: for inhibition in vivo at 5 mg/kg / inhibition in vivo at 1 mg/kg: ip, read-out: percent inhibition (PCA test); for inhibition (PCA test), oral: orally
Procedure: The compounds of the invention are new chemical substances of value as pharmacological agents which prevent the allergic response in mammals by inhibition of the release of such allergic mediators, as histamine. The assay by which this utility was established is carried out as follows.
Rat Reaginic Passive Cutaneous Anaphylaxis (PCA)
The PCA test (D. J. Herzig, P. R. Schumann, E. J. Kusner, L. Robichaud, R. E. Giles, B. Dubnick, M. von Strandtmann, S. Klutchko, M. Cohen, and J. Shavel, Jr., "Immunopharmacology", M. E. Rosenthale and H. C. Mansmann, Eds., Spectrum Publications, Inc., New York, N.Y., 1975, pp. 103-124) involved immunization of rats with 1 mg of ovalbumin intramuscularly and approximately 10^10 B. pertussis organisms as pertussis vaccine, intraperitoneally. Fourteen days later, the rats were bled and the serum was prepared. Suitable dilutions of antiserum were injected intradermally at various sites on the back of rats 48 h before an intravenous injection of 1 mg of ovalbumin in 1 ml of physiological saline and 0.25% Evans Blue. Thirty minutes later the animals were killed in ether, the dorsal skin was reflected, and the mean orthogonal diameter of the wheal was measured. For oral or intraperitoneal dosing, the drugs were suspended in 1% gum tragacanth in physiological saline and given 10-15 min before intravenous antigen challenge. For intravenous dosing, the compounds were dissolved in the saline/ovalbumin/Evans Blue solution and given with the antigen. If necessary, the compounds were first dissolved in a slight molar excess of sodium bicarbonate and then diluted into the antigen solution. Groups of five animals were used for all dose levels and control groups.
To quantitate the PCA test, the mean diameter of each wheal spot was graphed as a function of the relative antiserum concentration. The line, fitted by the least-squares equation, was extrapolated to the value at "zero" antiserum concentration (base value). The following equation was then used to calculate the percent inhibition: [formula]
The statistical significance of the results was determined by Student's t test (p≤0.05). An inhibition of 15% was significant. The test results obtained for the compounds of the invention as well as for the corresponding acids (U.S. Pat. No. 4,028,383) are given as percent inhibition in the following table.

[1] = 5 mg/kg, 10-15 min before intravenous antigen challenge
[2] = 10-15 min before intravenous antigen challenge

For `Cn1c2c([N+](=O)[O-])cc([N+](=O)[O-])cc2c2oc(C(=O)O)cc(=O)c21` [6,8-di-NO2 /CH3 A, 4,5-Dihydro-5-methyl-6,8-dinitro-4-oxopyrano[3,2-b]indole-2-carboxylic acid, reference compound], the inhibition in vivo at 5 mg/kg [1] was 0%.

`Cn1c2c([N+](=O)[O-])cc([N+](=O)[O-])cc2c2oc(C(=O)Nc3nnn[nH]3)cc(=O)c21` [6,8-di-NO2 /CH3 C, 4,5-Dihydro-5-methyl-6,8-dinitro-4-oxo-N-1H-tetrazol-5-ylpyrano[3,2-b]indole-2-carboxamide] was tested, and the inhibition in vivo at 5 mg/kg [1] was 48%.

`Cc1ccc2c(c1)c1oc(C(=O)O)cc(=O)c1n2C` [8-CH3 /CH3 A, 4,5-dihydro-5,8-dimethyl-4-oxopyrano[3,2-b]indole-2-carboxylic acid, reference compound] was tested, and the inhibition in vivo at 1 mg/kg [2] was 18%.

Compound `Cc1ccc2c(c1)c1oc(C(=O)Nc3nnn[nH]3)cc(=O)c1n2C` [8-CH3 /CH3 C, 4,5-Dihydro-5,8-dimethyl-4-oxo-N-1H-tetrazol-5-ylpyrano[3,2-b]indole-2-carboxamide] has an inhibition in vivo at 1 mg/kg [2] of 33% and an inhibition in vivo at 5 mg/kg [1] of 100%.

With `Cc1ccc2c(c1)c1oc(-c3nnn[nH]3)cc(=O)c1n2C` [8-CH3 /CH3 T, 5,8-Dimethyl-2-(1H-tetrazol-5-yl)pyrano[3,2-b]indol-4(5H)-one] the inhibition in vivo at 1 mg/kg [2] was 25%, the inhibition in vivo at 5 mg/kg [1] was 100% and the “inhibition (PCA test), oral” value (5 mg/kg) was 56%.

With `Cn1c2ccc(Cl)cc2c2oc(C(=O)O)cc(=O)c21` [8-Cl/CH3 A, 8-chloro-4,5-dihydro-5-methyl-4-oxopyrano[3,2-b]indole-2-carboxylic acid, reference compound] the inhibition in vivo at 5 mg/kg [1] was 23%.

Work on `Cn1c2ccc(Cl)cc2c2oc(C(=O)Nc3nnn[nH]3)cc(=O)c21` [8-Cl/CH3 C, 8-Chloro-4,5-dihydro-5-methyl-4-oxo-N-1H-tetrazol-5-ylpyrano[3,2-b]indole-2-carboxamide] yielded an inhibition in vivo at 1 mg/kg [2] of 38% and an inhibition in vivo at 5 mg/kg [1] of 100%.

`Cn1c2ccc(Cl)cc2c2oc(-c3nnn[nH]3)cc(=O)c21` [8-Cl/CH3 T, 8-Chloro-5-methyl-2-(1H-tetrazol-5-yl)pyrano[3,2-b]indol-4(5H)-one] was tested, and the inhibition in vivo at 1 mg/kg [2] was 46%, the inhibition in vivo at 5 mg/kg [1] was 100% and the “inhibition (PCA test), oral” value (5 mg/kg) was 33%.

`Cn1c2ccc([N+](=O)[O-])cc2c2oc(C(=O)O)cc(=O)c21` [8-NO2 /CH3 A, 4,5-Dihydro-5-methyl-8-nitro-4-oxopyrano-[3,2-b]indole-2-carboxylic acid, reference compound] was tested, and the inhibition in vivo at 1 mg/kg [2] was 1% and the inhibition in vivo at 5 mg/kg [1] was 100%.

In the case of `Cn1c2ccc([N+](=O)[O-])cc2c2oc(C(=O)Nc3nnn[nH]3)cc(=O)c21` [8-NO2 /CH3 C, 4,5-Dihydro-5-methyl-8-nitro-4-oxo-N-1H-tetrazol-5-ylpyrano[3,2-b]indole-2-carboxamide], the inhibition in vivo at 1 mg/kg [2] is reported as 42% and the inhibition in vivo at 5 mg/kg [1] is reported as 100%.

`O=C(O)c1cc(=O)c2c(o1)c1ccccc1n2-c1ccccc1` [H/.phi. A, reference compound] was tested, and the inhibition in vivo at 1 mg/kg [2] was 13%.

For `O=C(Nc1nn[nH]n1)c1cc(=O)c2c(o1)c1ccccc1n2-c1ccccc1` [H/.phi. C], the “percent inhibition (PCA test)” value (i.p., 5 mg/kg, 10-15 min before intravenous antigen challenge) was “Inac”.

With `O=c1cc(-c2nnn[nH]2)oc2c3ccccc3n(-c3ccccc3)c12` [H/.phi. T, 5-Phenyl-2(1H-tetrazol-5-yl)pyrano[3,2-b]indol-4(5H)-one] the “inhibition (PCA test), intravenous” value (intravenously, 0.1 mg/kg, given with the antigen) was 28%, the inhibition in vivo at 1 mg/kg [2] was 61% and the inhibition in vivo at 5 mg/kg [1] was 100%. For the same compound, the “inhibition (PCA test), oral” value (2 mg/kg) was 32%.

Work on `CCn1c2ccccc2c2oc(C(=O)O)cc(=O)c21` [H/C2 H5 A, 5-ethyl-4,5-dihydro-4-oxopyrano[3,2-b]indole-2-carboxylic acid, reference compound] yielded an inhibition in vivo at 1 mg/kg [2] of 0%.

`CCn1c2ccccc2c2oc(C(=O)Nc3nnn[nH]3)cc(=O)c21` [H/C2 H5 C, 5-Ethyl-4,5-dihydro-4-oxo-N-1H-tetrazol-5-ylpyrano[3,2-b]indole-2-carboxamide] was tested, and the inhibition in vivo at 1 mg/kg [2] was 12% and the inhibition in vivo at 5 mg/kg [1] was 100%.

`CCn1c2ccccc2c2oc(-c3nnn[nH]3)cc(=O)c21` [H/C2 H5 T, 5-Ethyl-2-(1H-tetrazol-5-yl)pyrano[3,2-b]indol-4(5H)-one] was tested, and the inhibition in vivo at 1 mg/kg [2] was 100%, the inhibition in vivo at 5 mg/kg [1] was 100% and the “inhibition (PCA test), oral” value (5 mg/kg) was 70%.

`Cn1c2ccccc2c2oc(C(=O)O)cc(=O)c21` [H/CH3 A, 4,5-dihydro-5-methyl-4-oxopyrano[3,2-b]indole-2-carboxylic acid, reference compound] was tested, and the inhibition in vivo at 1 mg/kg [2] was 30% and the inhibition in vivo at 5 mg/kg [1] was 100%.

Work on `Cn1c2ccccc2c2oc(C(=O)Nc3nnn[nH]3)cc(=O)c21` [H/CH3 C, 4,5-Dihydro-5-methyl-4-oxo-N-1H-tetrazol-5-ylpyrano[3,2-b]indole-2-carboxamide] yielded an inhibition in vivo at 1 mg/kg [2] of 28% and an inhibition in vivo at 5 mg/kg [1] of 100%.

In the case of `Cn1c2ccccc2c2oc(-c3nnn[nH]3)cc(=O)c21` [H/CH3 T, 5-Methyl-2(1H-tetrazol-5-yl)pyrano[3,2-b]indol-4(5H)-one], the inhibition in vivo at 1 mg/kg [2] is reported as 87%, the inhibition in vivo at 5 mg/kg [1] is reported as 100% and the “inhibition (PCA test), oral” value (2 mg/kg) is reported as 12%. The “inhibition (PCA test), oral” value (5 mg/kg) was 39%.
